In patent US20140045823A1 (Neurocrine Biosciences, Inc., priority 2012, published 2014):

These compounds were tested against T1, human GPR119 (Homo sapiens, UniProt Q8TDV5) (assay: AlphaScreen cAMP assay in MIN6 cells stably transfected with human GPR119). Conditions: Min-6/hGPR119 cells, 45 min at room temperature.
T1 construct: expression vector for human GPR119 cDNA (Acc. No. NP_848566); expressed in transfected cells; Min-6/hGPR119
T1 sequence (Q8TDV5 1-335): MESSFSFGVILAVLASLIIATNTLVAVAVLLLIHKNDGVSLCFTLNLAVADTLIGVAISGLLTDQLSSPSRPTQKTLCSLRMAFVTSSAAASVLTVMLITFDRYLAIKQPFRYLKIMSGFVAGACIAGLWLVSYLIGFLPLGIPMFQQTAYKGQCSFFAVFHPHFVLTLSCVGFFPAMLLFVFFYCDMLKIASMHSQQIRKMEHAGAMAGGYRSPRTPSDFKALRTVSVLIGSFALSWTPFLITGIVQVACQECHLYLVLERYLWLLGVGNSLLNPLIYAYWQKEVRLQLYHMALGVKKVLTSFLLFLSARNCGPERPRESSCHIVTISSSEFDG
Type: cell-based
Method in brief: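 cAMP accumulation quantified by AlphaScreen after 45 min compound stimulation at about 20 °C. Stimulation buffer: pH 7.4 HEPES saline with 0.5 mM IBMX, 0.1% BSA, 1% DMSO final. Cells: MIN6 stably transfected with human GPR119, 10000/well, cultured 24 h beforehand.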

Structure (SMILES) | EC50 [nM]
COc1ncc(-c2ncc(C(=O)N(C3CC3)C3CCN(C(=O)OC(C)(C)C)CC3)cn2)cn1 [Example 82, 4-[Cyclopropyl-(2′-methoxy-[2,5′]bipyrimidinyl-5-carbonyl)-amino]-piperidine-1-carboxylic acid tert-butyl ester] | 65
CO[C@@H]1CCN(C(=O)c2ccc(-c3ncc(C(=O)N(C4CC4)C4CCN(C(=O)OC(C)(C)C)CC4)cn3)cc2)C1 [Example 179, 4-(Cyclopropyl-{2-[4-(3-methoxy-pyrrolidine-1-carbonyl)-phenyl]-pyrimidine-5-carbonyl}-amino)-piperidine-1-carboxylic acid tert-butyl ester] | 338
COc1ccc(NC(=O)c2ccc(-c3ncc(C(=O)N(C4CC4)C4CCN(C(=O)OC(C)(C)C)CC4)cn3)cc2)c(OC)c1 [Example 238, 4-(Cyclopropyl-{2-[4-(2,4-dimethoxy-phenylcarbamoyl)-phenyl]-pyrimidine-5-carbonyl}-amino)-piperidine-1-carboxylic acid tert-butyl ester] | 111
CN(CC1CCOC1)C(=O)c1ccc(-c2ncc(C(=O)N(C3CC3)C3CCN(C(=O)OC(C)(C)C)CC3)cn2)cc1 (stereo not drawn) [Example 202, 4-[Cyclopropyl-(2-{4-[methyl-(tetrahydro-furan-3-ylmethyl)-carbamoyl]-phenyl}-pyrimidine-5-carbonyl)-amino]-piperidine-1-carboxylic acid tert-butyl ester] | 171
COc1cc(-c2ncc(C(=O)N(C3CC3)C3CCN(C(=O)OC(C)(C)C)CC3)cn2)ccn1 [Example 85, 4-{Cyclopropyl-[2-(2-methoxy-pyridin-4-yl)-pyrimidine-5-carbonyl]-amino}-piperidine-1-carboxylic acid tert-butyl ester] | 46
CC(C)(C)OC(=O)N1CCC(N(C(=O)c2ccc(-c3ccc(S(C)(=O)=O)cc3)nc2)C2CC2)CC1 [Example 1, 4-{Cyclopropyl-[6-(4-methanesulfonyl-phenyl)-pyridine-3-carbonyl]-amino}-piperidine-1-carboxylic acid tert-butyl ester] | 82
CC(C)(C)OC(=O)N1CCC(N(C(=O)c2cnc(-c3ccc(C(=O)N4CCCOCC4)cc3)nc2)C2CC2)CC1 [Example 178, 4-(Cyclopropyl-{2-[4-([1,4]oxazepane-4-carbonyl)-phenyl]-pyrimidine-5-carbonyl}-amino)-piperidine-1-carboxylic acid tert-butyl ester] | 237
CN(Cc1cccnc1)C(=O)c1ccc(-c2ncc(C(=O)N(C3CC3)C3CCN(C(=O)OC(C)(C)C)CC3)cn2)cc1F [Example 127, 4-(Cyclopropyl-{2-[3-fluoro-4-(methyl-pyridin-3-ylmethyl-carbamoyl)-phenyl]-pyrimidine-5-carbonyl}-amino)-piperidine-1-carboxylic acid tert-butyl ester] | 108
CC(C)(C)OC(=O)N1CCC(N(C(=O)c2cnc(-c3ccc(CC(=O)NCCOC(F)(F)F)cc3)nc2)C2CC2)CC1 [Example 191, 4-[Cyclopropyl-(2-{4-[(2-trifluoromethoxy-ethylcarbamoyl)-methyl]-phenyl}-pyrimidine-5-carbonyl)-amino]-piperidine-1-carboxylic acid tert-butyl ester] | 420
Cc1cnn(-c2ncc(C(=O)N(C3CC3)C3CCN(C(=O)OC(C)(C)C)CC3)cn2)c1 [Example 95, 4-{Cyclopropyl-[2-(4-methyl-pyrazol-1-yl)-pyrimidine-5-carbonyl]-amino}-piperidine-1-carboxylic acid tert-butyl ester] | 229
COc1ccc(NC(=O)Cc2ccc(-c3ncc(C(=O)N(C4CC4)C4CCN(C(=O)OC(C)(C)C)CC4)cn3)cc2)c(OC)c1 [Example 188, 4-[Cyclopropyl-(2-{4-[(2,4-dimethoxy-phenylcarbamoyl)-methyl]-phenyl}-pyrimidine-5-carbonyl)-amino]-piperidine-1-carboxylic acid tert-butyl ester] | 311
COC(C)CN(C)C(=O)c1ccc(-c2ncc(C(=O)N(C3CC3)C3CCN(C(=O)OC(C)(C)C)CC3)cn2)c(F)c1 (stereo not drawn) [Example 157, 4-[Cyclopropyl-(2-{2-fluoro-4-[(2-methoxy-propyl)-methyl-carbamoyl]-phenyl}-pyrimidine-5-carbonyl)-amino]-piperidine-1-carboxylic acid tert-butyl ester] | 401
CC(C)(C)OC(=O)N1CCC(N(C(=O)c2coc(-c3cnco3)n2)C2CC2)CC1 [Example 27, 4-[([2,5′]Bioxazolyl-4-carbonyl)-cyclopropyl-amino]-piperidine-1-carboxylic acid tert-butyl ester] | 1800
CC(C)(C)OC(=O)N1CCC(N(C(=O)c2coc(-c3ccc(S(C)(=O)=O)c(F)c3)n2)C2CC2)CC1 [Example 28, 4-{Cyclopropyl-[2-(3-fluoro-4-methanesulfonyl-phenyl)-oxazole-4-carbonyl]-amino}-piperidine-1-carboxylic acid tert-butyl ester] | 159
CC(C)(C)OC(=O)N1CCC(N(C(=O)c2ccc(-c3cnco3)nn2)C2CC2)CC1 [Example 6, 4-[Cyclopropyl-(6-oxazol-5-yl-pyridazine-3-carbonyl)-amino]-piperidine-1-carboxylic acid tert-butyl ester] | 1300
Cc1ncoc1-c1ccc(C(=O)N(C2CC2)C2CCN(C(=O)OC(C)(C)C)CC2)cn1 [Example 13, 4-{Cyclopropyl-[6-(4-methyl-oxazol-5-yl)-pyridine-3-carbonyl]amino}-piperidine-1-carboxylic acid tert-butyl ester] | 132
CC(C)(C)OC(=O)N1CCC(N(C(=O)c2cnc(-c3ccc(C(=O)NCCOC(F)(F)F)c(F)c3)nc2)C2CC2)CC1 [Example 142, 4-(Cyclopropyl-{2-[3-fluoro-4-(2-trifluoromethoxy-ethylcarbamoyl)-phenyl]-pyrimidine-5-carbonyl}-amino)-piperidine-1-carboxylic acid tert-butyl ester] | 105
CC(C)(C)OC(=O)N1CCC(N(C(=O)c2cnc(-c3cnco3)nc2)C2CC2)CC1 [Example 9, 4-[Cyclopropyl-(2-oxazol-5-yl-pyrimidine-5-carbonyl)-amino]-piperidine-1-carboxylic acid tert-butyl ester] | 224
CC(C)(CO)CNC(=O)c1ccc(-c2ncc(C(=O)N(C3CC3)C3CCN(C(=O)OC(C)(C)C)CC3)cn2)c(F)c1 [Example 101, 4-(Cyclopropyl-{2-[2-fluoro-4-(3-hydroxy-2,2-dimethyl-propylcarbamoyl)-phenyl]-pyrimidine-5-carbonyl}-amino)-piperidine-1-carboxylic acid tert-butyl ester] | 441
Cc1nccn1-c1ncc(C(=O)N(C2CC2)C2CCN(C(=O)OC(C)C)CC2)cn1 [Example 54, 4-{Cyclopropyl-[2-(2-methyl-imidazol-1-yl)-pyrimidine-5-carbonyl]-amino}-piperidine-1-carboxylic acid isopropyl ester] | 129
CN(CC1(C)COC1)C(=O)Cc1ccc(-c2ncc(C(=O)N(C3CC3)C3CCN(C(=O)OC(C)(C)C)CC3)cn2)cc1 [Example 186, 4-{Cyclopropyl-[2-(4-{[methyl-(3-methyl-oxetan-3-ylmethyl)-carbamoyl]-methyl}-phenyl)-pyrimidine-5-carbonyl]-amino}-piperidine-1-carboxylic acid tert-butyl ester] | 617
CC(C)(C)OC(=O)N1CCC(N(C(=O)c2cnc(-c3ccc(CC(=O)NCc4ccccn4)cc3)nc2)C2CC2)CC1 [Example 215, 4-{Cyclopropyl-[2-(4-{[(pyridin-2-ylmethyl)-carbamoyl]-methyl}-phenyl)-pyrimidine-5-carbonyl]-amino}-piperidine-1-carboxylic acid tert-butyl ester] | 393
CCOCCNC(=O)c1ccc(-c2ncc(C(=O)N(C3CC3)C3CCN(C(=O)OC(C)(C)C)CC3)cn2)cc1 [Example 175, 4-(Cyclopropyl-{2-[4-(2-ethoxy-ethylcarbamoyl)-phenyl]-pyrimidine-5-carbonyl}-amino)-piperidine-1-carboxylic acid tert-butyl ester] | 165
CC(C)(C)OC(=O)N1CCC(N(C(=O)c2cn(-c3ccc(S(C)(=O)=O)cc3)cn2)C2CC2)CC1 [Example 17, 4-{Cyclopropyl-[1-(4-methanesulfonyl-phenyl)-1H-imidazole-4-carbonyl]-amino}-piperidine-1-carboxylic acid tert-butyl ester] | 680
CN(CCOCC1CC1)C(=O)c1ccc(-c2ncc(C(=O)N(C3CC3)C3CCN(C(=O)OC(C)(C)C)CC3)cn2)cc1 [Example 220, 4-[Cyclopropyl-(2-{4-[(2-cyclopropylmethoxy-ethyl)-methyl-carbamoyl]-phenyl}-pyrimidine-5-carbonyl)-amino]-piperidine-1-carboxylic acid tert-butyl ester] | 183
COCC(C)N(C)C(=O)c1ccc(-c2ncc(C(=O)N(C3CC3)C3CCN(C(=O)OC(C)(C)C)CC3)cn2)cc1 (stereo not drawn) [Example 172, 4-[Cyclopropyl-(2-{4-[(2-methoxy-1-methyl-ethyl)-methyl-carbamoyl]-phenyl}-pyrimidine-5-carbonyl)-amino]-piperidine-1-carboxylic acid tert-butyl ester] | 226
CCc1nccn1-c1ncc(C(=O)N(C2CC2)C2CCN(C(=O)OC(C)C)CC2)cn1 [Example 52, 4-{Cyclopropyl-[2-(2-ethyl-imidazol-1-yl)-pyrimidine-5-carbonyl]-amino}-piperidine-1-carboxylic acid isopropyl ester] | 211
